Measurements reported in publication PMC8529873, “Carbohydrate-Based NK1R Antagonists with Broad-Spectrum Anticancer Activity” (Journal of Medicinal Chemistry, 2021).
Read-outs that look alike come from different tables or passages of the source. Where no end group is shown, it is not given here.

What was measured:
[1] = test system: MDA-MB-231 (triple-negative breast cancer); experiment: Resazurin cell viability assay, 96 h, MDA-MB-231; format: cell-based, human; settings: IC50 HaCaT / IC50 MDA-MB-231
Text: (§1) Cell viability was estimated with the resazurin assay. HaCaT human skin nonmalignant cells were used to study selectivity; these cells are derived from normal adult tissue and have a division rate similar to that of cancer cells.
(§2) Cell viability was estimated with the 3-(4,5-dimethylthiazol-2-yl)-2,5-diphenyltetrazolium bromide (MTT) assay or the resazurin assay. Both assays are redox-based colorimetric techniques based on the capability of viable cells to reduce the yellow product MTT or the blue reagent resazurin into a purple formazan dye or a pink-colored product, respectively. The number of live cells is directly proportional to the amount of the final product created. Exponentially growing cells were seeded in 96-well plates and were allowed to grow during 24 h. The cells were then treated with several concentrations of the tested compounds for 48–96 h (the incubation periods are specified in the figures and table legends) before measuring the cell viability using the MTT assay or the resazurin assay.
(§3) The OD of each well was measured at 540 and 620 nm on a multiwell plate spectrophotometer reader.

[2] = test system: Sk-Br-3 (HER2-positive breast cancer); experiment: Resazurin cell viability assay, 96 h, Sk-Br-3; format: cell-based, human
Text: as §1, §2, §3

MeWo (melanoma; BRAF WT) = experiment: Resazurin cell viability assay, 96 h, MeWo; format: cell-based, human
Text: as §1, §2, §3

[3] = test system: MRC-5 human nonmalignant lung cells; experiment: MTT cytotoxicity assay, 48 h, MRC-5 cells; format: cell-based
Text: (§4) First, we evaluated the cytotoxicity of our carbohydrate derivatives against MRC-5 human nonmalignant lung cells and A549 human lung cancer cells using the 3-(4,5-dimethylthiazol-2-yl)-2,5-diphenyltetrazolium bromide (MTT) assay under the same experimental conditions.
as §2, with “The cells were then treated with several concentrations of the tested compounds for 48–96 h (the incubation periods are specified in the figures and table legends) before measuring the cell viability using the MTT assay or the resazurin assay.” left out
(§5) Then, 80 μL of 20% sodium dodecyl sulfate (SDS) in 20 mM HCl was added to dissolve the insoluble purple formazan product and plates were incubated for 15 h at 37 °C. The optical density (OD) of each well was measured at 540 nm with a multiwell plate spectrophotometer reader to quantify cell survivals.
In both assays, results were expressed as the percentage of cell viability in relation to untreated cells (controls). All data were averaged from two to five independent experiments and were expressed as the means ± standard error of the mean (SEM). […]

[4] = test system: A549 human lung cancer cells; experiment: MTT cytotoxicity assay, 48 h, A549 cells; format: cell-based; settings: for IC50: read-out: IC50 (mean ± SEM) A549 (cancer)
Text: as §4, §2, §5
In both assays, results were expressed as the percentage of cell viability in relation to untreated cells (controls). All data were averaged from two to five independent experiments and were expressed as the means ± standard error of the mean (SEM). For statistical analysis, the t-test (paired, two-tailed) was used. A p value >0.05 is not considered statistically significant and is not represented by any symbol, a p value <0.05 is considered statistically significant and is indicated with an asterisk (*), a p value <0.01 is indicated with a double asterisk (**), and a p value <0.001 is indicated with a triple asterisk (***).

PC-3 (prostate cancer) = experiment: Resazurin cell viability assay, 96 h, PC-3; format: cell-based, human
Text: as §1, §2, §3

Sk-OV-3 (ovarian cancer) = experiment: Resazurin cell viability assay, 96 h, Sk-OV-3; format: cell-based, human; settings: IC50 HaCaT / IC50 Sk-OV-3
Text: as §1, §2, §3

[5] = test system: HaCaT (human skin normal); experiment: Resazurin cell viability assay, 96 h, HaCaT; format: cell-based; settings: read-out: IC50 (mean ± SEM) HaCaT
Procedure: Thirteen human cancer cells lines and one human nonmalignant cell line were treated with 14α for 96 h. We used longer exposure times because some of these cell lines have long cell cycles (24–48 h); this longer exposure time allows the cells to pass several cycles in the presence of 14α. Cell viability was estimated with the resazurin assay. HaCaT human skin nonmalignant cells were used to study selectivity; these cells are derived from normal adult tissue and have a division rate similar to that of cancer cells. One key limitation of most anticancer drugs is that, in addition to targeting cancer cells, they also target nonmalignant cells with similar division rates. […] These cell lines were at least 3 times more sensitive than the normal cell line to 14α treatment. HepG2 (hepatocarcinoma) and KATO III (gastric cancer) were at least 9-fold more vulnerable to 14α than HaCaT nonmalignant cells.
Cell viability was estimated with the 3-(4,5-dimethylthiazol-2-yl)-2,5-diphenyltetrazolium bromide (MTT) assay or the resazurin assay. […]
For the resazurin assay, after treatment, the medium was removed and 150 μL of resazurin solution (20 μg/mL in medium) was added to each well for 3–6 h. The OD of each well was measured at 540 and 620 nm on a multiwell plate spectrophotometer reader.

[6] = test system: A64-CLS (submaxillary gland adenoma); experiment: Resazurin cell viability assay, 96 h, A64-CLS; format: cell-based, human
Text: as §1, §2, §3

[7] = test system: KATO III (gastric cancer); experiment: Resazurin cell viability assay, 96 h, KATO III; format: cell-based, human
Text: as §1, §2, §3

HNO97 (tongue cancer) = experiment: Resazurin cell viability assay, 96 h, HNO97; format: cell-based, human
Text: as §1, §2, §3

HepG2 (hepatocarcinoma) = experiment: Resazurin cell viability assay, 96 h, HepG2; format: cell-based, human
Text: as §1, §2, §3

GAMG (glioblastoma) = experiment: Resazurin cell viability assay, 96 h, GAMG; format: cell-based, human
Text: as §1, §2, §3

[8] = test system: AN3Ca (endometrial adenocarcinoma); experiment: Resazurin cell viability assay, 96 h, AN3Ca; format: cell-based, human
Text: as §1, §2, §3

HT29 (colorectal cancer) = experiment: Resazurin cell viability assay, 96 h, HT29; format: cell-based, human
Text: as §1, §2, §3

T24 (bladder cancer) = experiment: Resazurin cell viability assay, 96 h, T24; format: cell-based, human
Text: as §1, §2, §3

A549 cancer cells = experiment: Cytotoxicity of 14α in presence or absence of antioxidants (ROS involvement); format: cell-based, human; settings: A549, 48 h
Procedure: It is known that cancer cells have higher basal levels of reactive oxygen species (ROS) than normal cells, making them more sensitive to exogenous induction of ROS.[33] […] Therefore, we decided to study whether the generation of ROS was involved in the selective cytotoxic effect of 14α. A549 cancer cells were treated with 14α for 48 h in the presence or absence of three antioxidants: N-acetylcysteine (antioxidant activity through the glutathione system), catalase (hydrogen peroxide-degrading enzyme), and Mn(III) tetrakis(1-methyl-4-pyridyl)porphyrin pentachloride (MnTMPyP; superoxide anion scavenger).

A549 cells [9] = experiment: Glycolysis inhibition: glucose consumption and lactate production; format: cell-based, human; settings: A549 cells exposed for 8 h
Procedure: Our next aim was to study the possible mechanisms involved in the selective anticancer activity of 14α. Because tumor cells rely on glycolysis for survival more than normal cells,[32] we evaluated if our compound behaved as a glycolysis inhibitor. Since glycolysis consumes glucose and produces lactate, we measured the concentrations of glucose and lactate in untreated A549 cells and in cells exposed for 8 h to 14α and to the known glycolysis inhibitor dichloroacetate.
Glycolysis inhibition was assessed by measuring concentrations of glucose ([…] of glycolysis) and lactate (final product of glycolysis) in control and treated cells. Briefly, 4 × 10^5 cells were seeded into 24-well plates. After 10 h, the medium of cells was renewed and drugs were added. Cells were exposed to the tested compounds for 8 h, and glucose and lactate concentrations were determined in cell supernatants using the Accutrend Plus analyzer together with Accutrend glucose strips and BM-Lactate strips (Roche Diagnostics). […] Results are expressed as a percentage of lactate production and percentage of glucose consumption in relation to untreated cells and are shown as the means ± SEM of two independent experiments.

A549 cells [10] = experiment: Cell proliferation after SP, Resazurin assay, 48 h; format: cell-based, human; settings: SP 2.5 - 200 nM
Procedure: Competition Experiments of Cytotoxic effect of in presence of SP. 14α
First, we treated A549 cells with several concentrations of SP (2.5 - 200 nM) for 48 h and we evaluated cell proliferation with the Resazurin assay. Although it has been reported that A549 […]
of SP. The highest SP concentration tested (200 nM) was added 1 h before 32 µM of 14α or Cisplatin. After a 48 h treatment period, the cell viability was determined with the Resazurin […]
Figure S-4. Evaluation of cytotoxic activity of 14α derivative and Cisplatin on A549 lung cancer cells and HaCaT normal cells in presence of SP. Results are representative of at least three independent experiments. Values are expressed in mean with SEM.
1 O'Connor, T.M.; O'Connell, J.; O'Brien, D.I.; Bennett, M.W.; Goode, T.; Burke, L.; Bredin, C.P.; Shanahan,
(1 picture or pasted object on this page, not shown here)

N.N.[Cl][Pt][Cl] [Cisplatin]
selectivity index (vs HaCaT; mean ± SEM) MDA-MB-231 [1]: 0.3 ± 0.1 | selectivity index (vs HaCaT; mean ± SEM) Sk-Br-3 ([2]; IC50 HaCaT / IC50 Sk-Br-3, Resazurin): 0.5 ± 0.1 | IC50 ([2]; Resazurin assay, read-out: IC50 (mean ± SEM) Sk-Br-3): 4.3 ± 0.9 µM | selectivity index (vs HaCaT; mean ± SEM) MeWo (MeWo (melanoma; BRAF WT); IC50 HaCaT / IC50 MeWo, Resazurin): 1.0 ± 0.1 | IC50 (MeWo (melanoma; BRAF WT); Resazurin assay, read-out: IC50 (mean ± SEM) MeWo): 2.2 ± 1.1 µM | IC50 ([3]; read-out: IC50 (mean ± SEM) MRC-5 (normal)): 99.2 ± 37 µM | IC50 ([4]; MTT assay): 13.5 ± 2.7 µM | selectivity index (IC50 MRC-5 / IC50 A549) ([4]; mean of indices of each individual experiment, MTT): 8.6 ± 3.9 | selectivity index (vs HaCaT; mean ± SEM) PC-3 (PC-3 (prostate cancer); IC50 HaCaT / IC50 PC-3, Resazurin): 0.7 ± 0.2 | IC50 (PC-3 (prostate cancer); Resazurin assay, read-out: IC50 (mean ± SEM) PC-3): 3.1 ± 0.2 µM | selectivity index (vs HaCaT; mean ± SEM) Sk-OV-3 (Sk-OV-3 (ovarian cancer)): 0.5 ± 0.2 | IC50 [5]: 2.1 ± 0.7 µM | selectivity index (vs HaCaT; mean ± SEM) A64-CLS ([6]; IC50 HaCaT / IC50 A64-CLS, Resazurin): 0.5 ± 0.0 | IC50 ([6]; Resazurin assay, read-out: IC50 (mean ± SEM) A64-CLS): 4.5 ± 1.2 µM | selectivity index (vs HaCaT; mean ± SEM) KATO III ([7]; IC50 HaCaT / IC50 KATO III, Resazurin): 1.2 ± 0.5 | IC50 ([7]; Resazurin assay, read-out: IC50 (mean ± SEM) KATO III): 1.8 ± 0.2 µM | selectivity index (vs HaCaT; mean ± SEM) HNO97 (HNO97 (tongue cancer); IC50 HaCaT / IC50 HNO97, Resazurin): 0.8 ± 0.1 | IC50 (HNO97 (tongue cancer); Resazurin assay, read-out: IC50 (mean ± SEM) HNO97): 2.5 ± 0.4 µM | selectivity index (vs HaCaT; mean ± SEM) HepG2 (HepG2 (hepatocarcinoma); IC50 HaCaT / IC50 HepG2, Resazurin): 1.2 ± 0.2 | IC50 (HepG2 (hepatocarcinoma); Resazurin assay, read-out: IC50 (mean ± SEM) HepG2): 1.8 ± 0.2 µM | selectivity index (vs HaCaT; mean ± SEM) GAMG (GAMG (glioblastoma); IC50 HaCaT / IC50 GAMG, Resazurin): 0.7 ± 0.0 | IC50 (GAMG (glioblastoma); Resazurin assay, read-out: IC50 (mean ± SEM) GAMG): 3.2 ± 0.9 µM | selectivity index (vs HaCaT; mean ± SEM) AN3Ca ([8]; IC50 HaCaT / IC50 AN3Ca, Resazurin): 2.1 ± 1.2 | IC50 ([8]; Resazurin assay, read-out: IC50 (mean ± SEM) AN3Ca): 1.8 ± 1.4 µM | selectivity index (vs HaCaT; mean ± SEM) HT29 (HT29 (colorectal cancer); IC50 HaCaT / IC50 HT29, Resazurin): 0.4 ± 0.1 | IC50 (HT29 (colorectal cancer); Resazurin assay, read-out: IC50 (mean ± SEM) HT29): 4.9 ± 0.8 µM | selectivity index (vs HaCaT; mean ± SEM) T24 (T24 (bladder cancer); IC50 HaCaT / IC50 T24, Resazurin): 1.3 ± 0.0 | IC50 (T24 (bladder cancer); Resazurin assay, read-out: IC50 (mean ± SEM) T24): 1.6 ± 0.5 µM

C[C@@H](O[C@H]1O[C@@H]2CO[C@@H](c3ccccc3)O[C@@H]2[C@H](O)[C@H]1OCc1ccc(F)cc1)c1cc(C(F)(F)F)cc(C(F)(F)F)c1 [14α, (R)-{1-[3,5-Bis-(trifluoromethyl)phenyl]ethyl} (R)-(4,6-O-Benzylidene)-2-O-p-fluorobenzyl-α-D-galactopyranoside]
effect of antioxidants (N-acetylcysteine, catalase, MnTMPyP) on cytotoxicity (A549 cancer cells): None of these three antioxidants reduced the cytotoxicity | glucose consumption and lactate production (glycolysis inhibition) (A549 cells [9]): did not reduce glucose consumption or lactate production

substance P (RPKPQQFFGLM-NH2; ends and bridges not checked; also: 125I label, position not given here) [SP]
cell proliferation after addition of SP (A549 cells [10]): did not observe any increase in cell proliferation

C[C@@H](O[C@H]1OCCN(Cc2n[nH]c(=O)[nH]2)[C@H]1c1ccc(F)cc1)c1cc(C(F)(F)F)cc(C(F)(F)F)c1 [Aprepitant]
IC50 ([3]; Homo sapiens, MRC5, read-out: IC50 (mean ± SEM) MRC-5 (normal)): 28.9 ± 6.8 µM | IC50 ([4]; Homo sapiens, A549, MTT assay): 18.3 ± 3.4 µM
